# In US11020399B2, “Intermediates useful in the synthesis of compounds as modulators of protein kinases” (Rhizen Pharmaceuticals SA, priority 2011, dated 2021):
# Experiments:
# PI3kδ = PI3kδ (Homo sapiens, UniProt O00329); assay: Fluorescent (HTRF) determination of PI3 kinase enzyme activity, PI3Kδ; type: biochemical; details: for inhibition at 0.1 µM / % inhibition (PI3kδ) 100 nM: 100 nM (Examples 60-137); for % inhibition (PI3kδ) 100 nM: 0.1 µM; for inhibition at 0.3 µM: 300 nM (Examples 1-59)
# Summary of the method: (§1)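 Human PI3K isoforms were preincubated with compound for 10 min at room temperature in 10 mM MgCl2, 5 mM DTT, 1.38 μM PIP2, then reacted 30 min after adding 400 μM ATP stock. PIP3 was read by HTRF (665/620 nm). Percent inhibition used blank and enzyme controls; single-point testing was at 1 uM for α/β and 0.3 or 0.1 uM for γ/δ.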
# PI3kα = PI3kα (Homo sapiens, UniProt P42336); assay: Fluorescent (HTRF) determination of PI3 kinase enzyme activity, PI3Kα; type: biochemical
# Summary of the method: as §1
# PI3kβ = PI3kβ (Homo sapiens, UniProt P42338); assay: Fluorescent (HTRF) determination of PI3 kinase enzyme activity, PI3Kβ; type: biochemical
# Summary of the method: as §1
# PI3kγ = PI3kγ (Homo sapiens, UniProt P48736); assay: Fluorescent (HTRF) determination of PI3 kinase enzyme activity, PI3Kγ; type: biochemical; details: for inhibition at 0.1 µM / % inhibition (PI3kγ) 100 nM: 100 nM (Examples 60-137); for % inhibition (PI3kγ) 100 nM: 0.1 µM; for inhibition at 0.3 µM: 300 nM (Examples 1-59)
# Summary of the method: as §1
# Chain of PI3kβ (P42338 whole entry): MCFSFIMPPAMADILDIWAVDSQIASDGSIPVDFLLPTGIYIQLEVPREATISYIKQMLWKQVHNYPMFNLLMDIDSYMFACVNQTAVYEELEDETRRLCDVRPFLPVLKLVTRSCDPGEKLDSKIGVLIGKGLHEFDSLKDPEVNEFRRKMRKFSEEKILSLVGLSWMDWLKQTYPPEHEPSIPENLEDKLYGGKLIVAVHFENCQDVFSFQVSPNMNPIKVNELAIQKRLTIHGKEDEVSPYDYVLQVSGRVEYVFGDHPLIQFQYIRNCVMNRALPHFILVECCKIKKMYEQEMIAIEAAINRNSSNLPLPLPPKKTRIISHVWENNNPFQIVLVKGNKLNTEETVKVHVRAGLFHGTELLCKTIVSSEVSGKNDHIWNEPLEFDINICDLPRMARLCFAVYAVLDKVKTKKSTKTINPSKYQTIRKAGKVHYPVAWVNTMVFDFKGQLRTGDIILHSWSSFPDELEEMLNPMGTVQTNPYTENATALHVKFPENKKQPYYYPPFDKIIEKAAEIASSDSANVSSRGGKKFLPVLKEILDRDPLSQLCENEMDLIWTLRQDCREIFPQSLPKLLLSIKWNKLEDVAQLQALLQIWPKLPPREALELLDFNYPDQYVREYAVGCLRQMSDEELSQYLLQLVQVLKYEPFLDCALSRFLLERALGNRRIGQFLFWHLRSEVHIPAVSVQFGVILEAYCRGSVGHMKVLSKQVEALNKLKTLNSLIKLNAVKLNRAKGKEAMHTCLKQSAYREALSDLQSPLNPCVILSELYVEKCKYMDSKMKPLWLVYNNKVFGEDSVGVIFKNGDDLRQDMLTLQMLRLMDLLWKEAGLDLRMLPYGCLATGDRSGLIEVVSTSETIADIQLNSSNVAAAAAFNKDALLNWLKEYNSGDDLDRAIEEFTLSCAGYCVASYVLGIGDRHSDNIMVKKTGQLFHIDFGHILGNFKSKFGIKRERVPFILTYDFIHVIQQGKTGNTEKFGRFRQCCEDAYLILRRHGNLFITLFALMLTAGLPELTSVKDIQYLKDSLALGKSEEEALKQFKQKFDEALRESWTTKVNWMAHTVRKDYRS
# Chain of PI3kβ (P27986 whole entry partner): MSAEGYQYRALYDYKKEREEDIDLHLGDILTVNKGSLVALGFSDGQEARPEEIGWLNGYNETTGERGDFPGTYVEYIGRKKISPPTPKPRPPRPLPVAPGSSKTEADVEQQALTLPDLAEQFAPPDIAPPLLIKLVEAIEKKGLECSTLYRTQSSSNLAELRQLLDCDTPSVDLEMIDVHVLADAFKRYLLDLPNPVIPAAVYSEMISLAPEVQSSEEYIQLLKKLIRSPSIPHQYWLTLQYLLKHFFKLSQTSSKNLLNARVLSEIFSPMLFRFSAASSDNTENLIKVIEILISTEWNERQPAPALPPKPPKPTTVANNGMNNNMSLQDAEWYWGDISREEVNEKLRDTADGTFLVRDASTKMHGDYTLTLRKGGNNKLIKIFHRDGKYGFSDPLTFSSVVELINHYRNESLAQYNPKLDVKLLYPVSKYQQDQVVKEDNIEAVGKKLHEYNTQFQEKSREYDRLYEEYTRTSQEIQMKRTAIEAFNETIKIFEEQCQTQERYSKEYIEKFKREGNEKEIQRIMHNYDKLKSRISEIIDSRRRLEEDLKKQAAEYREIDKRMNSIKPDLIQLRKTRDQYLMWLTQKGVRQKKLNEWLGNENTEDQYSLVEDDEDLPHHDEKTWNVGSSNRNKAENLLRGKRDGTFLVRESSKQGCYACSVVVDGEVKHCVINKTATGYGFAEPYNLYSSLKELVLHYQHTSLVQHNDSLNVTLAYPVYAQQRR
# Chain of PI3kδ (O00329 whole entry, canonical isoform): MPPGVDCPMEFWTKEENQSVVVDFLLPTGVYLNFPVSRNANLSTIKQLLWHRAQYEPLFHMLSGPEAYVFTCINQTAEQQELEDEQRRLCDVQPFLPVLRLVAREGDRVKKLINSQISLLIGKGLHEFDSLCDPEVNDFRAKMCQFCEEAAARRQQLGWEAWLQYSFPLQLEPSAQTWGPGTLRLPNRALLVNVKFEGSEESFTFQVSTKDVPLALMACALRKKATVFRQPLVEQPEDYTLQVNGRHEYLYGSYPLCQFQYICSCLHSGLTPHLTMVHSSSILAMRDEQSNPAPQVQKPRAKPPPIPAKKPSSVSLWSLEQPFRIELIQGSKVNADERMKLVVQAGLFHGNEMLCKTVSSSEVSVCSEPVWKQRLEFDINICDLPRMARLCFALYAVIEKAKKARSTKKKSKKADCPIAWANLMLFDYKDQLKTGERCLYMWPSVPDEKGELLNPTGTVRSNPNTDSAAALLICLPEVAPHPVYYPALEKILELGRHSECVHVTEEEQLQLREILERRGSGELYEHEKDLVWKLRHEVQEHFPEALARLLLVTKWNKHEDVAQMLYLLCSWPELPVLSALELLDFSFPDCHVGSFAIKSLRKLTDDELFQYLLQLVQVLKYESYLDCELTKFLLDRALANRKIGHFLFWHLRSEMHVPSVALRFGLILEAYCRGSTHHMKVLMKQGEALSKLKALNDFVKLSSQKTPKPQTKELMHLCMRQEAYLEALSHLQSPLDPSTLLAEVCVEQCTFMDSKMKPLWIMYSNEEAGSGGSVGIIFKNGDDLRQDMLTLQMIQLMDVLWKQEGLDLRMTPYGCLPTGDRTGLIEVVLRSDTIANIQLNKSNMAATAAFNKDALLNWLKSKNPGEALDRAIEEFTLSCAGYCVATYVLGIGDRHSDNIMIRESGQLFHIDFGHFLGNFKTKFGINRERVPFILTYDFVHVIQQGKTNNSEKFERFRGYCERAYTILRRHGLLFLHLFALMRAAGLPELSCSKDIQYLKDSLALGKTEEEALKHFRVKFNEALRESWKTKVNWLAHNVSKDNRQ
# Chain of PI3kδ (P27986 whole entry partner, canonical isoform): as the sequence (P27986 whole entry partner) above
# Chain of PI3kα (P42336 whole entry): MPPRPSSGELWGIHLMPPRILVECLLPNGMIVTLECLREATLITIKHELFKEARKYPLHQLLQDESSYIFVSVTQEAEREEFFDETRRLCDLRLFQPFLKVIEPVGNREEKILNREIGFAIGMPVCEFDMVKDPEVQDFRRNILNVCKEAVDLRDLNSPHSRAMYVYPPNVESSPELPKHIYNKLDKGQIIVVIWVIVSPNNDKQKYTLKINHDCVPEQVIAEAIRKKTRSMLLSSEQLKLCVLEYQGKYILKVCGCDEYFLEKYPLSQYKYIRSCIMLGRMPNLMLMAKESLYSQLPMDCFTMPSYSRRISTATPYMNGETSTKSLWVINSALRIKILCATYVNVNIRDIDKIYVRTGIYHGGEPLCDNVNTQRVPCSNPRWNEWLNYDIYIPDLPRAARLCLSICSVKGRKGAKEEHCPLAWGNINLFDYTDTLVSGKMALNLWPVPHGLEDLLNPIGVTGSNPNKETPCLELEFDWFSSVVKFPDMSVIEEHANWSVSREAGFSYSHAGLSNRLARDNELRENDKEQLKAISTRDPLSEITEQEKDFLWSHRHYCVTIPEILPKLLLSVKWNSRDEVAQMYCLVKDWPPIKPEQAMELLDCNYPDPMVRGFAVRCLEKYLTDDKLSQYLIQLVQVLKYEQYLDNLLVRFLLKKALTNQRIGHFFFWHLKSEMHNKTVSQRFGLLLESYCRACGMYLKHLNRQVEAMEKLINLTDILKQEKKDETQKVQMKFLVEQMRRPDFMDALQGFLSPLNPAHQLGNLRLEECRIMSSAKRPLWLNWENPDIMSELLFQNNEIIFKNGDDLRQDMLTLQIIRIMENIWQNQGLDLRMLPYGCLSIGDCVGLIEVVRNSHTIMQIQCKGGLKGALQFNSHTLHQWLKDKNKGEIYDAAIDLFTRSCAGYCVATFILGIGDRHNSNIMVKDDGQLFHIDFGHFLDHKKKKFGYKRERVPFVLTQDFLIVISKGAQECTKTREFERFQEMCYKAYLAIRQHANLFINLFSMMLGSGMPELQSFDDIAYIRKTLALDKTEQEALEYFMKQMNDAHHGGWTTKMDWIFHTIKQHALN
# Chain of PI3kα (P27986 whole entry partner): as the sequence (P27986 whole entry partner) above
# Chain of PI3kγ (P48736 whole entry): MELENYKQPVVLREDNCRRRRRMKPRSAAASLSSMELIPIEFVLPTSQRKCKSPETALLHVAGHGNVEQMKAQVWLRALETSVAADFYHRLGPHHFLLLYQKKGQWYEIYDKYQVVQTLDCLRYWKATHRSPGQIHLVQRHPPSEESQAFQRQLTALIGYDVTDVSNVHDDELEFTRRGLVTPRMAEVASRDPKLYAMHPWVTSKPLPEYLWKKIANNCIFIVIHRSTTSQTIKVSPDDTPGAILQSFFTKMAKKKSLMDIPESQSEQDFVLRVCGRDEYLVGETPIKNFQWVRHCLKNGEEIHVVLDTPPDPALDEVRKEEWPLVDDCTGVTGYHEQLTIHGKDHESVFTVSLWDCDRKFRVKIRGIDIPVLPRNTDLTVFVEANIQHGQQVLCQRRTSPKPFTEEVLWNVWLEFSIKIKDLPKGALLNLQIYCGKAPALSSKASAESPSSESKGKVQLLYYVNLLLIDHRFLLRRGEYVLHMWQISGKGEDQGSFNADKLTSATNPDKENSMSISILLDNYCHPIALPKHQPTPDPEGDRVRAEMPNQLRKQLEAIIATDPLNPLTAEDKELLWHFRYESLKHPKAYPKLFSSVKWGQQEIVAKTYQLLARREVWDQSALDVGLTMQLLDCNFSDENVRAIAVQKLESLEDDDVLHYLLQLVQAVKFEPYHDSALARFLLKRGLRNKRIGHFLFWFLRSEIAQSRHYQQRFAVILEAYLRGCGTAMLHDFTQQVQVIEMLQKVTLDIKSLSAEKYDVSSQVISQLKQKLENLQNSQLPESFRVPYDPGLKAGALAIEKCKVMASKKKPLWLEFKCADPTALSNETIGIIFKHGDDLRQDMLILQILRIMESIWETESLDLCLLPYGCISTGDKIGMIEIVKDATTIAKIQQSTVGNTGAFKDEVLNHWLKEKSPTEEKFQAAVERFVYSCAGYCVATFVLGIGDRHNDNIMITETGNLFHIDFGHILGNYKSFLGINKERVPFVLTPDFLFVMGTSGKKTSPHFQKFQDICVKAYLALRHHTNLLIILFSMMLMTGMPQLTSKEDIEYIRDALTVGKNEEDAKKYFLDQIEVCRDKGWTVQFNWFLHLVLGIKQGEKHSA
SMILES,inhibition at 0.1 µM (PI3kδ),melting point,inhibition at 0.1 µM (PI3kγ),inhibition at 1 µM (PI3kβ),inhibition at 1 µM (PI3kα),inhibition at 0.3 µM (PI3kδ),inhibition at 0.3 µM (PI3kγ),other results
"CC(c1oc2cccc(F)c2c(=O)c1-c1cccc(F)c1)n1nc(-c2ccc(N3CCOCC3)c(F)c2)c2c(N)ncnc21 (racemic) [Example 70, (R)/(S)-2-(1-(4-amino-3-(3-fluoro-4-morpholinophenyl)-1H-pyrazolo[3,4-d]pyrimidin-1-yl)ethyl)-5-fluoro-3-(3-fluorophenyl)-4H-chromen-4-one]",25 to 50%,243 to 246 °C,25 to 50%,,,,,% inhibition (PI3kα) 1 uM (PI3kα): D (D=0 to 25%); % inhibition (PI3kβ) 1 uM (PI3kβ): C (C=>25 to 50%)
"CC(c1oc2cccc(F)c2c(=O)c1-c1cccc(F)c1)n1cnc2c(N(C)C)ncnc21 (racemic) [Example 129, (S)/(R)-2-(1-(6-(dimethylamino)-9H-purin-9-yl)ethyl)-5-fluoro-3-(3-fluorophenyl)-4H-chromen-4-one]",,187 to 189 °C,,,,,,% inhibition (PI3kδ) 100 nM (PI3kδ): D (D=0 to 25%); % inhibition (PI3kα) 1 uM (PI3kα): D (D=0 to 25%); % inhibition (PI3kβ) 1 uM (PI3kβ): C (C=>25 to 50%); % inhibition (PI3kγ) 100 nM (PI3kγ): C (C=>25 to 50%)
"CC(c1oc2cccc(F)c2c(=O)c1-c1cccc(F)c1)n1nc(-c2ccc(N3CCOCC3)c(F)c2)c2c(N)ncnc21 (single isomer, unassigned) [Example 59]",,242 to 245 °C,,25 to 50%,,,,IC50 (PI3kδ): 100 to 300 nM; IC50 (PI3kα; numeric values): > 10000 nM; IC50 (PI3kβ): > 500 nM; IC50 (PI3kγ): ≤ 50 nM
"CC(c1oc2cccc(F)c2c(=O)c1-c1cccc(F)c1)n1nc(-c2ccc(N3CCOCC3)c(Cl)c2)c2c(N)ncnc21 (single isomer, unassigned) [Example 127]",50 to 75%,260 to 262 °C,0 to 25%,50 to 75%,0 to 25%,,,
"Cc1cccc2oc([C@H](C)n3nc(-c4ccc(OC(C)C)c(F)c4)c4c(N)ncnc43)c(-c3ccccc3)c(=O)c12 (single isomer, unassigned) [Example 137]",25 to 50%,208 to 210 °C,0 to 25%,50 to 75%,0 to 25%,,,
"CC(Nc1ncnc2[nH]cnc12)c1oc2cccc(F)c2c(=O)c1-c1cccc(F)c1 (single isomer, unassigned; (+)) [Example 68, (+)-2-(1-(9H-purin-6-ylamino)ethyl)-5-fluoro-3-(3-fluorophenyl)-4H-chromen-4-one]",,194 to 197 °C,,,25 to 50%,,,% inhibition (PI3kδ) 100 nM (PI3kδ): C (C=>25 to 50%); % inhibition (PI3kβ) 1 uM (PI3kβ): B (B=>50 to 75%); % inhibition (PI3kγ) 100 nM (PI3kγ): B (B=>50 to 75%)
"CC(Nc1ncnc2[nH]cnc12)c1oc2cccc(F)c2c(=O)c1-c1cccc(F)c1 (single isomer, unassigned; (-)) [Example 78, (−)-2-(1-(9H-purin-6-ylamino)ethyl)-5-fluoro-3-(3-fluorophenyl)-4H-chromen-4-one]",50 to 75%,205 to 208 °C,,25 to 50%,0 to 25%,,,IC50 (PI3kδ): 50 to 100 nM
"CC(c1oc2cccc(F)c2c(=O)c1-c1cccc(F)c1)n1nc(-c2ccc(OC3COC3)c(F)c2)c2c(N)ncnc21 (centres unmarked) [Example 46, 2-(1-(4-amino-3-(3-fluoro-4-(oxetan-3-yloxy)phenyl)-1H-pyrazolo[3,4-d]pyrimidin-1-yl)ethyl)-5-fluoro-3-(3-fluorophenyl)-4H-chromen-4-one]",,235 to 237 °C,,50 to 75%,0 to 25%,25 to 50%,50 to 75%,
"CC(C)Cc1ccc(-c2nn(C(C)c3oc4cccc(F)c4c(=O)c3-c3cccc(F)c3)c3ncnc(N)c23)cc1 (centres unmarked) [Example 49, 2-(1-(4-amino-3-(4-isobutylphenyl)-1H-pyrazolo[3,4-d]pyrimidin-1-yl)ethyl)-5-fluoro-3-(3-fluorophenyl)-4H-chromen-4-one]",,221 to 223 °C,,50 to 75%,50 to 75%,50 to 75%,50 to 75%,
"CNS(=O)(=O)c1ccc(-c2nn(C(C)c3oc4cccc(F)c4c(=O)c3-c3cccc(F)c3)c3ncnc(N)c23)cc1 (centres unmarked) [Example 52, 4-(4-amino-1-(1-(5-fluoro-3-(3-fluorophenyl)-4-oxo-4H-chromen-2-yl)ethyl)-1H-pyrazolo[3,4-d]pyrimidin-3-yl)-N-methylbenzenesulfonamide]",,175 to 178 °C,,50 to 75%,25 to 50%,50 to 75%,50 to 75%,
"CNc1nnc(-c2ccc(-c3nn(C(C)c4oc5cccc(F)c5c(=O)c4-c4cccc(F)c4)c4ncnc(N)c34)cc2)s1 (centres unmarked) [Example 54, 2-(1-(4-amino-3-(4-(5-(methylamino)-1,3,4-thiadiazol-2-yl)phenyl)-1H-pyrazolo[3,4-d]pyrimidin-1-yl)ethyl)-5-fluoro-3-(3-fluorophenyl)-4H-chromen-4-one]",,199 to 201 °C,,25 to 50%,25 to 50%,50 to 75%,50 to 75%,
"CC(C)NS(=O)(=O)c1ccc(-c2nn(C(C)c3oc4cccc(F)c4c(=O)c3-c3cccc(F)c3)c3ncnc(N)c23)cc1 (centres unmarked) [Example 56, 4-(4-amino-1-(1-(5-fluoro-3-(3-fluorophenyl)-4-oxo-4H-chromen-2-yl)ethyl)-1H-pyrazolo[3,4-d]pyrimidin-3-yl)-N-isopropylbenzenesulfonamide]",,211 to 214 °C,,50 to 75%,0 to 25%,0 to 25%,50 to 75%,
"CC(C)Oc1ncc(-c2nn(C(C)c3oc4cccc(F)c4c(=O)c3-c3cccc(F)c3)c3ncnc(N)c23)cn1 (centres unmarked) [Example 58, 2-(1-(4-amino-3-(2-isopropoxypyrimidin-5-yl)-1H-pyrazolo[3,4-d]pyrimidin-1-yl)ethyl)-5-fluoro-3-(3-fluorophenyl)-4H-chromen-4-one]",,230 to 232 °C,,50 to 75%,0 to 25%,50 to 75%,25 to 50%,
"CC(c1oc2cccc(F)c2c(=O)c1-c1cccc(F)c1)n1nc(-c2ccc(S(N)(=O)=O)cc2)c2c(N)ncnc21 (centres unmarked) [Example 60, 4-(4-amino-1-(1-(5-fluoro-3-(3-fluorophenyl)-4-oxo-4H-chromen-2-yl)ethyl)-1H-pyrazolo[3,4-d]pyrimidin-3-yl)benzenesulfonamide]",25 to 50%,232 to 235 °C,25 to 50%,25 to 50%,0 to 25%,,,
"COC(=O)c1cc(-c2nn(C(C)c3oc4cccc(F)c4c(=O)c3-c3cccc(F)c3)c3ncnc(N)c23)cs1 (centres unmarked) [Example 61, methyl 4-(4-amino-1-(1-(5-fluoro-3-(3-fluorophenyl)-4-oxo-4H-chromen-2-yl)ethyl)-1H-pyrazolo[3,4-d]pyrimidin-3-yl)thiophene-2-carboxylate]",25 to 50%,227 to 230 °C,50 to 75%,25 to 50%,25 to 50%,,,
"Cc1ccc(-c2nn(C(C)c3oc4cccc(F)c4c(=O)c3-c3cccc(F)c3)c3ncnc(N)c23)s1 (centres unmarked) [Example 62, 2-(1-(4-amino-3-(5-methylthiophen-2-yl)-1H-pyrazolo[3,4-d]pyrimidin-1-yl)ethyl)-5-fluoro-3-(3-fluorophenyl)-4H-chromen-4-one]",50 to 75%,223 to 226 °C,25 to 50%,50 to 75%,0 to 25%,,,
"CC(c1oc2cccc(F)c2c(=O)c1-c1cccc(F)c1)n1nc(-c2cnc3[nH]ccc3c2)c2c(N)ncnc21 (centres unmarked) [Example 63, 2-(1-(4-amino-3-(1H-pyrrolo[2,3-b]pyridin-5-yl)-1H-pyrazolo[3,4-d]pyrimidin-1-yl)ethyl)-5-fluoro-3-(3-fluorophenyl)-4H-chromen-4-one]",25 to 50%,303 to 306 °C,25 to 50%,0 to 25%,25 to 50%,,,
"CC(Nc1ncnc2[nH]cnc12)c1oc2cccc(F)c2c(=O)c1-c1cccc(F)c1 (centres unmarked) [Example 69, 2-(1-(9H-purin-6-ylamino)ethyl)-5-fluoro-3-(3-fluorophenyl)-4H-chromen-4-one]",,247 to 249 °C,,,,,,% inhibition (PI3kδ) 100 nM (PI3kδ): B (B=>50 to 75%); % inhibition (PI3kβ) 1 uM (PI3kβ): C (C=>25 to 50%); % inhibition (PI3kγ) 100 nM (PI3kγ): A (A=>75 to 100%)
"CC(C)C(=O)Nc1ccc(-c2nn(C(C)c3oc4cccc(F)c4c(=O)c3-c3ccc(F)cc3)c3ncnc(N4CCOCC4)c23)cc1F (centres unmarked) [Example 86, N-(2-fluoro-4-(1-(1-(5-fluoro-3-(4-fluorophenyl)-4-oxo-4H-chromen-2-yl)ethyl)-4-morpholino-1H-pyrazolo[3,4-d]pyrimidin-3-yl)phenyl)isobutyramide]",50 to 75%,165 to 167 °C,25 to 50%,,0 to 25%,,,IC50 (PI3kγ): > 500 nM
"CC(c1oc2cccc(F)c2c(=O)c1-c1cccc(F)c1)n1cnc2c(N3CCN(C)CC3)ncnc21 (centres unmarked) [Example 125, 5-fluoro-3-(3-fluorophenyl)-2-(1-(6-(4-methylpiperazin-1-yl)-9H-purin-9-yl)ethyl)-4H-chromen-4-one]",25 to 50%,199 to 201 °C,,,0 to 25%,,,
